# Patent publication US10407428B2, “Spiro-isoquinoline-1,4′-piperidine compounds having multimodal activity against pain” (ESTEVE PHARMACEUTICALS, S.A., priority 2014, dated 2019)
# System: human σ1 receptor and human μ-opioid receptor
# Assay: Human σ1 receptor radioligand assay and human μ-opioid receptor radioligand assay (μ and σ1 dual binding)
# Set-up: key to μ and σ1 dual binding: +: Both Ki-μ and Ki-σ1>=500 nM; ++: One Ki<500 nM while the other Ki is >=500 nM; +++: Both Ki-μ and Ki-σ1<500 nM; ++++: Both Ki-μ and Ki-σ1<100 nM
# Details: not given
Structure (SMILES),μ and σ1 dual binding,Ki [nM]
"COCCN(C(=O)CN1CCC2(CC1)c1ccccc1CCN2C)C(C)C [Example 108, N-isopropyl-N-(2-methoxyethyl)-2-(2-methyl-3,4-dihydro-2H-spiro[isoquinoline-1,4′-piperidine]-1′-yl)acetamide]",++,
"CCC(CC)N(CC)C(=O)CN1CCC2(CC1)c1ccccc1CCN2C [Example 109, N-ethyl-2-(2-methyl-3,4-dihydro-2H-spiro[isoquinoline-1,4′-piperidine]-1′-yl)-N-(pentan-3-yl)acetamide]",++,
"CCC(CC)N(C)C(=O)CN1CCC2(CC1)c1ccccc1CCN2C [Example 111, N-methyl-2-(2-methyl-3,4-dihydro-2H-spiro[isoquinoline-1,4′-piperidine]-1′-yl)-N-(pentan-3-yl)acetamide]",,< 500
"CN(CC1CC1)C(=O)CN1CCC2(CC1)c1ccccc1CCN2C [Example 112, N-(cyclopropylmethyl)-N-methyl-2-(2-methyl-3,4-dihydro-2H-spiro[isoquinoline-1,4′-piperidine]-1′-yl)acetamide]",,< 500
"CN1CCc2ccccc2C12CCN(CC(O)c1ccncc1F)CC2 (stereo not drawn) [Example 113, 1-(3-fluoropyridin-4-yl)-2-(2-methyl-3,4-dihydro-2H-spiro[isoquinoline-1,4′-piperidine]-1′-yl)ethanol]",,< 500
"CC1CCN(C(=O)CN2CCC3(CC2)c2ccccc2CCN3C)CC1 [Example 114, 2-(2-Methyl-3,4-dihydro-2H-spiro[isoquinoline-1,4′-piperidine]-1′-yl)-1-(4-methylpiperidin-1-yl)ethanone]",,< 500
"CN(Cc1ccccn1)C(=O)CN1CCC2(CC1)c1ccccc1CCN2C [Example 116, N-methyl-2-(2-methyl-3,4-dihydro-2H-spiro[isoquinoline-1,4′-piperidine]-1′-yl)-N-(pyridin-2-ylmethyl)acetamide]",++,
"CN1CCc2ccccc2C12CCN(CCc1cccc(N)c1)CC2 [Example 117, 3-[2-(2-Methyl-3,4-dihydro-2H-spiro[isoquinoline-1,4′-piperidin]-1′-yl)-ethyl]-phenylamine]",,< 100
"CN1CCc2ccccc2C12CCN(CCc1cccc(NS(C)(=O)=O)c1)CC2 [Example 118, N-(3-(2-(2-Methyl-3,4-dihydro-2H-spiro[isoquinoline-1,4′-piperidin]-1′-yl)ethyl)phenyl)methanesulfonamide]",,< 100
"CC(=O)Nc1cccc(CCN2CCC3(CC2)c2ccccc2CCN3C)c1 [Example 119, N-{3-[2-(2-Methyl-3,4-dihydro-2H-spiro[isoquinoline-1,4′-piperidin]-1′-yl)-ethyl]-phenyl}-acetamide]",,< 500
"CN1CCc2ccccc2C12CCN(CC(O)c1ccccc1)CC2 (stereo not drawn) [Example 120, 2-(2-Methyl-3,4-dihydro-2H-spiro[isoquinoline-1,4′-piperidin]-1′-yl)-1-phenyl-ethanol]",,< 500
"CN1CCc2ccccc2C12CCN(CCc1ccncc1)CC2 [Example 121, 2-Methyl-1′-(2-(pyridin-4-yl)ethyl)-3,4-dihydro-2H-spiro[isoquinoline-1,4′-piperidine]]",,< 500
"COCCN1CCc2ccccc2C12CCN(CCc1ccccc1)CC2 [Example 122, 2-(2-Methoxyethyl)-1′-phenethyl-3,4-dihydro-2H-spiro[isoquinoline-1,4′-piperidine]]",,< 500
"OCCN1CCc2ccccc2C12CCN(CCc1ccccc1)CC2 [Example 123, 2-(1′-Phenethyl-3,4-dihydro-2H-spiro[isoquinoline-1,4′-piperidin]-2-yl)ethanol]",,< 100
"OCCN1CCc2ccccc2C12CCN(CCc1cccnc1)CC2 [Example 125, 2-[1′-(2-Pyridin-3-yl-ethyl)-3,4-dihydro-spiro[isoquinoline-1,4′-piperidin]-2-yl]-ethanol]",,< 500
"O=C(CN1CCC2(CC1)c1ccccc1CCN2CCO)N1CCCCC1 [Example 126, 2-(2-(2-Hydroxyethyl)-3,4-dihydro-2H-spiro[isoquinoline-1,4′-piperidine]-1′-yl)-1-(piperidin-1-yl)ethanone]",++,
"OCCN1CCc2ccccc2C12CCN(CCc1cncc(F)c1)CC2 [Example 127, 2-(1′-(2-(5-fluoropyridin-3-yl)ethyl)-3,4-dihydro-2H-spiro[isoquinoline-1,4′-piperidin]-2-yl)etanol]",,< 500

Structure (SMILES),μ and σ1 dual binding,Ki [nM]
"OCCN1CCc2ccccc2C12CCN(CCc1cncc(C(F)(F)F)c1)CC2 [Example 128, 2-(1′-(2-(5-(trifluoromethyl)pyridin-3-yl)ethyl)-3,4-dihydro-2H-spiro[isoquinoline-1,4′-piperidine]-2-yl)ethanol]",,< 500
"OCCN1CCc2ccccc2C12CCN(CCc1ccncc1)CC2 [Example 129, 2-(1′-(2-(pyridin-4-yl)ethyl)-3,4-dihydro-2H-spiro[isoquinoline-1,4′-piperidine]-2-yl)ethanol]",++,
"OCCN1CCc2ccccc2C12CCN(CCc1ccncc1F)CC2 [Example 130, 2-(1′-(2-(3-Fluoropyridin-4-yl)ethyl)-3,4-dihydro-2H-spiro[isoquinoline-1,4′-piperidine]-2-yl)ethanol]",,< 500
"CN1CCc2cc(O)ccc2C12CCN(CCc1ccccc1)CC2 [Example 131, 2-Methyl-1′-phenethyl-3,4-dihydro-2H-spiro[isoquinoline-1,4′-piperidin]-6-ol]",,< 100
"FC(F)(F)CN1CCc2ccccc2C12CCN(CCc1ccccc1)CC2 [Example 133, 1′-Phenethyl-2-(2,2,2-trifluoroethyl)-3,4-dihydro-2H-spiro[isoquinoline-1,4′-piperidine]]",,< 100
"O=C(CN1CCC2(CC1)c1ccccc1CCN2CC(F)(F)F)N1CCOCC1 [Example 134, 1-Morpholino-2-(2-(2,2,2-trifluoroethyl)-3,4-dihydro-2H-spiro[isoquinoline-1,4′-piperidine]-1′-yl)ethanone]",++,
"O=C(CN1CCC2(CC1)c1ccccc1CCN2CC(F)(F)F)N1CCCCC1 [Example 135, 1-(piperidin-1-yl)-2-(2-(2,2,2-trifluoroethyl)-3,4-dihydro-2H-spiro[isoquinoline-1,4′-piperidine]-1′-yl)ethanone]",++,
"FC(F)(F)CN1CCc2ccccc2C12CCN(CCc1ccncc1)CC2 [Example 136, 1′-(2-(pyridin-4-yl)ethyl)-2-(2,2,2-trifluoroethyl)-3,4-dihydro-2H-spiro[isoquinoline-1,4′-piperidine]]",,< 500
"FC(F)(F)CN1CCc2ccccc2C12CCN(CCc1cccnc1)CC2 [Example 137, 1′-(2-(pyridin-3-yl)ethyl)-2-(2,2,2-trifluoroethyl)-3,4-dihydro-2H-spiro[isoquinoline-1,4′-piperidine]]",,< 500
"CN1Cc2ccccc2C12CCN(CCc1ccccc1)CC2 [Example 140, 2-Methyl-1′-phenethylspiro[isoindoline-1,4′-piperidine]]",,< 500
"CN1Cc2ccccc2C12CCN(CC1CCOCC1)CC2 [Example 141, 2-Methyl-1′-((tetrahydro-2H-pyran-4-yl)methyl)spiro[isoindoline-1,4′-piperidine]]",++,
"CN1CCc2ccccc2C12CCN(C[C@H](O)c1ccncc1F)CC2 [Example 142, (R)-1-(3-fluoropyridin-4-yl)-2-(2-methyl-3,4-dihydro-2H-spiro[isoquinoline-1,4′-piperidine]-1′-yl)ethanol]",,< 500
"CN1CCc2ccccc2C12CCN(C[C@@H](O)c1ccncc1F)CC2 [Example 143, (S)-1-(3-fluoropyridin-4-yl)-2-(2-methyl-3,4-dihydro-2H-spiro[isoquinoline-1,4′-piperidine]-1′-yl)ethanol]",,< 500
"CCN(C(=O)CN1CCC2(CC1)c1ccccc1CCN2CC)C(C)C [Example 144, N-ethyl-2-(2-ethyl-3,4-dihydro-2H-spiro[isoquinoline-1,4′-piperidine]-1′-yl)-N-isopropylacetamide]",,< 500
"CCN1CCc2ccccc2C12CCN(CC(=O)N1CCC(F)(F)CC1)CC2 [Example 145, 1-(4,4-difluoropiperidin-1-yl)-2-(2-ethyl-3,4-dihydro-2H-spiro[isoquinoline-1,4′-piperidine]-1′-yl)ethanone]",,< 500
"CCN1CCc2ccccc2C12CCN(CC(O)c1ccncc1)CC2 (stereo not drawn) [Example 146, 2-(2-ethyl-3,4-dihydro-2H-spiro[isoquinoline-1,4′-piperidine]-1′-yl)-1-(pyridin-4-yl)ethanol]",++,
"CCN1CCc2ccccc2C12CCN(CC(=O)N1CCOCC1)CC2 [Example 147, 2-(2-ethyl-3,4-dihydro-2H-spiro[isoquinoline-1,4′-piperidine]-1′-yl)-1-morpholinoethanone]",,< 500

# Same assay, conditions: combined class for Ki-μ ([3H]-DAMGO, CHO-K1 membranes) and Ki-σ1 ([3H](+)-pentazocine, HEK-293 membranes)
row,Structure (SMILES),Ki [nM]
1,"CC(C)CN(C(=O)CN1CCC2(CC1)c1ccccc1CCN2C)C(C)C [Example 110, N-isobutyl-N-isopropyl-2-(2-methyl-3,4-dihydro-2H-spiro[isoquinoline-1,4′-piperidine]-1′-yl)acetamide]",≥ 500
2,"C[C@@H]1CN(C(=O)CN2CCC3(CC2)c2ccccc2CCN3C)C[C@H](C)O1 [Example 115, 1-((2S,6R)-2,6-dimethylmorpholino)-2-(2-methyl-3,4-dihydro-2H-spiro[isoquinoline-1,4′-piperidine]-1′-yl)ethanone]",≥ 500
3,"COCCN1CCc2ccccc2C12CCN(CCc1cccnc1)CC2 [Example 124, 2-(2-Methoxyethyl)-1′-(2-(pyridin-3-yl)ethyl)-3,4-dihydro-2H-spiro[isoquinoline-1,4′-piperidine]]",≥ 500
4,"O=C(N1CCc2ccccc2C12CCN(CCc1ccccc1)CC2)C(F)(F)F [Example 132, 2,2,2-Trifluoro-1-(1′-phenethyl-3,4-dihydro-2H-spiro[isoquinoline-1,4′-piperidine]-2-yl)ethanone]",≥ 500
5,"CN1CC(C)(C)c2ccccc2C12CCN(CC(=O)N1CCCCC1)CC2 [Example 138, 1-(Piperidin-1-yl)-2-(2,4,4-trimethyl-3,4-dihydro-2H-spiro[isoquinoline-1,4′-piperidine]-1′-yl)ethanone]",≥ 500
